Key:
[1] = biological target: Phosphatidylinositol 4,5-bisphosphate 3-kinase catalytic subunit alpha isoform (Homo sapiens, UniProt P42336); assay: Inhibition of PI3Kalpha (unknown origin) by ADP-glo plus luminescence assay
[2] = biological target: Serine/threonine-protein kinase mTOR (Homo sapiens, UniProt P42345)
[3] = biological target: Phosphatidylinositol 4,5-bisphosphate 3-kinase catalytic subunit gamma isoform (Homo sapiens, UniProt P48736); assay: Inhibition of PI3Kgamma (unknown origin) by ADP-glo plus luminescence assay
[4] = biological target: T1, Phosphatidylinositol 4,5-bisphosphate 3-kinase catalytic subunit delta isoform (Homo sapiens, UniProt O00329)
T1 sequence (O00329 whole entry): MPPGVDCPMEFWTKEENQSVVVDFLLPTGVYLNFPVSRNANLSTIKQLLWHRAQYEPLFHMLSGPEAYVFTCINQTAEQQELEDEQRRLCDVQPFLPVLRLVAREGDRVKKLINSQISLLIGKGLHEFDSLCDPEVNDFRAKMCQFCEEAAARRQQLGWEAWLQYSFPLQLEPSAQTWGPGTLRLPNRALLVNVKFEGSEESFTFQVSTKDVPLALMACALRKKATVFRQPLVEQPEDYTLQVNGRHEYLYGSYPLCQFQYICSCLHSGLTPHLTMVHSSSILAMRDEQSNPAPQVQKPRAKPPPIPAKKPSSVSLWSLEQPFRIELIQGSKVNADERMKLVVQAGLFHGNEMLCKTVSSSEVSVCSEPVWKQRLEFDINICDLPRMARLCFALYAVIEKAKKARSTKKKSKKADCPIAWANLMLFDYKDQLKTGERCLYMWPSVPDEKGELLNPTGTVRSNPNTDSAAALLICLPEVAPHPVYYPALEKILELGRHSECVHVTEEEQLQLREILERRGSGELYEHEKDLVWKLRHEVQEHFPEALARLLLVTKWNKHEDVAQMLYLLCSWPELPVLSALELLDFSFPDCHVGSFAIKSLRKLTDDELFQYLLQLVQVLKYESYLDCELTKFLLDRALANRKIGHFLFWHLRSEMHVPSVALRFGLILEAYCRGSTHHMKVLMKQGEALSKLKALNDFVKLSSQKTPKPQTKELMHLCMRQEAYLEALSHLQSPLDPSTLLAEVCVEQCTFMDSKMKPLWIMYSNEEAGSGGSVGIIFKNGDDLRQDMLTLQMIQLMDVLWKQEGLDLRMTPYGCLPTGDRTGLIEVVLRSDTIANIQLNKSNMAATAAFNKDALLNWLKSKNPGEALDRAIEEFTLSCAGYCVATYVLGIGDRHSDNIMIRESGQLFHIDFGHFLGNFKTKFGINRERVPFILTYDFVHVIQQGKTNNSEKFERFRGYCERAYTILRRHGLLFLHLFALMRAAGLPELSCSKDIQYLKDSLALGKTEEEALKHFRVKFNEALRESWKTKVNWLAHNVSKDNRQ

[5] = biological target: Phosphatidylinositol 4,5-bisphosphate 3-kinase catalytic subunit beta isoform (Homo sapiens, UniProt P42338)
CNE-2 = assay: Antiproliferative activity against human CNE-2 cells assessed as inhibition of cell growth incubated for 48 hrs by CCK-8 assay; assay type: functional, cell-based; conditions: CNE-2, 48 h
HepG2 = assay: Antiproliferative activity against human HepG2 cells assessed as inhibition of cell growth incubated for 48 hrs by CCK-8 assay; assay type: functional, cell-based; conditions: HepG2, 48 h
MDA-MB-231 = assay: Antiproliferative activity against human MDA-MB-231 cells assessed as inhibition of cell growth incubated for 48 hrs by CCK-8 assay; assay type: functional, cell-based; conditions: MDA-MB-231, 48 h
HeLa = assay: Antiproliferative activity against human HeLa cells assessed as inhibition of cell growth incubated for 48 hrs by CCK-8 assay; assay type: functional, cell-based
[6] = Antiproliferative activity against human L02 cells assessed as inhibition of cell growth incubated for 48 hrs by CCK-8 assay; assay type: toxicity, cell-based
[7] = Selectivity index, ratio of IC50 for antiproliferative activity against human L02 cells assessed as inhibition of cell growth to IC50 for antiproliferative activity against human HepG2 cells assessed as inhibition of cell growth; assay type: toxicity, cell-based; conditions: L02 cells versus HepG2 cells, read-out: Ratio IC50
HCT-116 = assay: Antiproliferative activity against human HCT-116 cells assessed as inhibition of cell growth incubated for 48 hrs by CCK-8 assay; assay type: functional, cell-based; conditions: HCT-116, 48 h
MCF7 = assay: Antiproliferative activity against human MCF7 cells assessed as inhibition of cell growth incubated for 48 hrs by CCK-8 assay; assay type: functional, cell-based; conditions: MCF7, 48 h

Chain of Phosphatidylinositol 4,5-bisphosphate 3-kinase catalytic subunit alpha isoform (P42336 whole entry, canonical isoform): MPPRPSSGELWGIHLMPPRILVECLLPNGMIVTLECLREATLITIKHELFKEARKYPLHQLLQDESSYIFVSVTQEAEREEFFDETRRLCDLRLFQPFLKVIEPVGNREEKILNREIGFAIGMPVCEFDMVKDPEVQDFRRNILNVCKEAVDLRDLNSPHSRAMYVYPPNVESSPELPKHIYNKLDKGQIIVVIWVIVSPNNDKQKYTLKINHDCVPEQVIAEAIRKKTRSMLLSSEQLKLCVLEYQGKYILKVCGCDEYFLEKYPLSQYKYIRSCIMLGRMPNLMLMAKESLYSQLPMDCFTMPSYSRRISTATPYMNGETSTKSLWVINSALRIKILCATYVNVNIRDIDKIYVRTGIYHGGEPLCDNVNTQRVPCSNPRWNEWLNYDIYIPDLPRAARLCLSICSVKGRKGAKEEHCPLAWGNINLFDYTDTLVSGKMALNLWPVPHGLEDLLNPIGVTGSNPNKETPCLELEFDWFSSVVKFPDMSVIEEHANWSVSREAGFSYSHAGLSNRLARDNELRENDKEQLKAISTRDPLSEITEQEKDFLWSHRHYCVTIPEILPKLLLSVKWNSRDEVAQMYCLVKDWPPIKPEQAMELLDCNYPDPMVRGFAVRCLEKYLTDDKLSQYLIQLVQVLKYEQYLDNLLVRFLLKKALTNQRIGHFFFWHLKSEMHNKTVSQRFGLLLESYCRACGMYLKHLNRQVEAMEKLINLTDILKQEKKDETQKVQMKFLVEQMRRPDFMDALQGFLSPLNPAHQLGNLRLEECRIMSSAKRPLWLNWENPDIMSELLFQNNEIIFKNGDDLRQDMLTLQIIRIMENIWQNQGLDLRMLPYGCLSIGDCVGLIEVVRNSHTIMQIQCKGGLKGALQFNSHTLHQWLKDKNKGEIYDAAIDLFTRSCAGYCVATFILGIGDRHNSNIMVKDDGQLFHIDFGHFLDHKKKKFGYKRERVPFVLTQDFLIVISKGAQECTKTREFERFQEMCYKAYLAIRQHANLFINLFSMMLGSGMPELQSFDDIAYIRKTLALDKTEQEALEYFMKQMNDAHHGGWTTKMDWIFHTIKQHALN
Chain of Phosphatidylinositol 4,5-bisphosphate 3-kinase catalytic subunit gamma isoform (P48736 whole entry, canonical isoform): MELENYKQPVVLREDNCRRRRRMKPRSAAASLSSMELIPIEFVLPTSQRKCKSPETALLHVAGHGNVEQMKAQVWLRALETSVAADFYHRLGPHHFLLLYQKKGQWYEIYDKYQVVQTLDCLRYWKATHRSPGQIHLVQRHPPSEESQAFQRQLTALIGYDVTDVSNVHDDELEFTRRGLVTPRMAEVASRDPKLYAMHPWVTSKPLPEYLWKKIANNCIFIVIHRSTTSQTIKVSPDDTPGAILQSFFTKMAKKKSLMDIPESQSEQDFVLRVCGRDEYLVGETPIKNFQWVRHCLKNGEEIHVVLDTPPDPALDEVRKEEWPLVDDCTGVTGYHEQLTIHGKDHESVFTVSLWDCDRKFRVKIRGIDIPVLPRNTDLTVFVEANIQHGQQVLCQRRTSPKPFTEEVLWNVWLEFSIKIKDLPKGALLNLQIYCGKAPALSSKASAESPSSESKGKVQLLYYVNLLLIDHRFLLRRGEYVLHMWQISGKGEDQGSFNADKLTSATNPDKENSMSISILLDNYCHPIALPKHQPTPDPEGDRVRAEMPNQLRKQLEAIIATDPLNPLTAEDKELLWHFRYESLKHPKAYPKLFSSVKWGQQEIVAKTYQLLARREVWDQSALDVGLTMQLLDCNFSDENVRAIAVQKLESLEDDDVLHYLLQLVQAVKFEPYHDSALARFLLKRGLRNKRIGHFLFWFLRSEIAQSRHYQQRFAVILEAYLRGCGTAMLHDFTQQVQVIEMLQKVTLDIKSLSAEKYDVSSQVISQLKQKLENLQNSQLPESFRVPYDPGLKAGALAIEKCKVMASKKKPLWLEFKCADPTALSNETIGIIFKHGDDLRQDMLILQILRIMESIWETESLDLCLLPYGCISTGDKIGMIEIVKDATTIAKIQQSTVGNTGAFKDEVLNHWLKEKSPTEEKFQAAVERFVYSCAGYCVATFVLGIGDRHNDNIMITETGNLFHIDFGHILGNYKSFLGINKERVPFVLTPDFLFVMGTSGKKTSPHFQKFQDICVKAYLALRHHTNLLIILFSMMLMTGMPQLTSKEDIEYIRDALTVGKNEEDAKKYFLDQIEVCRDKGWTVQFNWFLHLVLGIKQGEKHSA
Chain of Phosphatidylinositol 4,5-bisphosphate 3-kinase catalytic subunit beta isoform (P42338 whole entry, canonical isoform): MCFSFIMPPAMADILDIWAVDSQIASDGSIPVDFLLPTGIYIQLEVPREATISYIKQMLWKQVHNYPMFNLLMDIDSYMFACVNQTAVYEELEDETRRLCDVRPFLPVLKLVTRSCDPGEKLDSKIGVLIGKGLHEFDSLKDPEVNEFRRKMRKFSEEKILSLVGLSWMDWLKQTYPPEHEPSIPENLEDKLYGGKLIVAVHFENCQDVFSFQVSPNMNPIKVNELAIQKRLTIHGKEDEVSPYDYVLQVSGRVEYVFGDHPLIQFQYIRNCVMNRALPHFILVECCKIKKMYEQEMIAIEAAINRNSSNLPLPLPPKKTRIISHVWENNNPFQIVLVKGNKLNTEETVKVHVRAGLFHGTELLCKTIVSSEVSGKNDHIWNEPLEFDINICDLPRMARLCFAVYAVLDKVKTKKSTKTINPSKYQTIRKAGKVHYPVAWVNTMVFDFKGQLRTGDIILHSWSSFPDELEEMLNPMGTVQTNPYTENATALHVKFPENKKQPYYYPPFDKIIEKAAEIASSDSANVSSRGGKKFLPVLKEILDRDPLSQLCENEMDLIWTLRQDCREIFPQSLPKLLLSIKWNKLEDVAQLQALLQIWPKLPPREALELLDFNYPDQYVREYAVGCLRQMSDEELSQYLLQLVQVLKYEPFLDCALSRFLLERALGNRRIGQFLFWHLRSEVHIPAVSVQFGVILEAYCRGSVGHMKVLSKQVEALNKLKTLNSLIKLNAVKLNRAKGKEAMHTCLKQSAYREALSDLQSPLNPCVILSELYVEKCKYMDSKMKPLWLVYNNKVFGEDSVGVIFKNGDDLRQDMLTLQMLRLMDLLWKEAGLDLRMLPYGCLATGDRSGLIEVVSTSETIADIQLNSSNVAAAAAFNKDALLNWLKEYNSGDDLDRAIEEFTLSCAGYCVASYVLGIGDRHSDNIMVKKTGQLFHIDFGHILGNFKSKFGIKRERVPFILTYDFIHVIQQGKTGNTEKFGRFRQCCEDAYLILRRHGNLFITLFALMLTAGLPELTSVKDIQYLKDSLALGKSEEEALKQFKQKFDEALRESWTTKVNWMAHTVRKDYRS

Structure (SMILES)	IC50 [1]	IC50 [2]	IC50 [3]	IC50 [4]	IC50 [5]	further results
CC(C)(C)OC(=O)N1C(=O)c2ccc(NC(=O)Nc3ccc(-c4nc(N5CCOCC5)nc(N5CCOCC5)n4)cc3)cc2C1=O	379 nM	–	–	–	–	–
CC1OC(=O)c2cc(NC(=O)Nc3ccc(-c4nc(N5CCOCC5)nc(N5CCOCC5)n4)cc3)ccc21 (stereo unspecified)	45.4 nM	7.2 nM	–	–	–	–
O=C(Nc1ccc(-c2nc(N3CCOCC3)nc(N3CCO[C@H](CO)C3)n2)cc1)Nc1ccc2c(c1)COC2=O	–	–	228 nM	161 nM	93 nM	–
O=C(Nc1ccc(-c2nc(N3CCOCC3)nc(N3C4CCC3COC4)n2)cc1)Nc1ccc2c(c1)COC2=O	354 nM	1.7 nM	1940 nM	1830 nM	782 nM	IC50 (CNE-2): 230 nM; IC50 (HepG2): 130 nM; IC50 (MDA-MB-231): 4.43 µM; IC50 (HeLa): 2150 nM; IC50 at 48 h [6]: 4.59 µM; selectivity ratio [7]: 35.3; IC50 (HCT-116): 732 nM; IC50 (MCF7): 890 nM

Now from value to compound, other results behind:

IC50 [1]	IC50 [2]	IC50 [3]	IC50 [4]	IC50 [5]	Structure (SMILES)	further results
–	–	725 nM	1320 nM	754 nM	C[C@H]1COCCN1c1nc(-c2ccc(NC(=O)Nc3ccc4c(c3)COC4=O)cc2)nc(N2CCOCC2)n1	–
–	–	162 nM	248 nM	129 nM	O=C(Nc1ccc(-c2nc(N3CCOCC3)nc(N3CCOCC3)n2)cc1)Nc1ccc2c(c1)COC2=O	–
–	147 nM	–	–	–	CC(C)(C)OC(=O)N1CC2CCC(C1)N2c1nc(-c2ccc(NC(=O)Nc3ccc4c(c3)COC4=O)cc2)nc(N2CCOCC2)n1	–

From ChEMBL document CHEMBL5543164 (J Med Chem, 2024)
